# In US20230338531A1, “COMPOSITIONS AND USES OF CD45 TARGETED CHIMERIC ANTIGEN RECEPTOR MODIFIED T CELLS” (City of Hope, priority 2020, published 2023):
# Experiments:
# [1] = tested on: iCasp9-CD45-CAR lentivirus transduced HT1080 cells; experiment: Induced cell depletion by iCasp9 safety switch; format: cell-based; conditions: 100 μM, 24h, normalized to non-treated group
# Experimental: To test the effects of a suicide switch as a safety precaution, experiments were conducted to investigate the induced cell depletion effect of rimiducid on iCasp9-CD45-CAR lentivirus transduced cells. iCasp9 can be activated by a specific chemical inducer of dimerization (CID) such as rimiducid, leading to efficient elimination of iCasp9 engineered cell.
# The order of iCaspase 9 and CD45 scFv components can be switched (e.g., promoter-CD45CAR-T2A-iCaspase9-etc). HT1080 cells were transduced by lentivirus. […] Transduced HT1080 cells were seeded in 24 well plate and treated with 100 μM ramiducid for 24h normalized and compared to non-treated group, and the relative survival cell number was quantified (FIG. 10C). Treating the iCasp9-CD45-CAR cells with ramiducid reduced cell survival to 36% (FIG. 10C).
# PTPRC (CD45) gene = experiment: CD45 protein expression after PTPRC (CD45) gene knockout by CRISPR/Cas9; format: cell-based; conditions: T cells after CRISPR/cas9 mediated CD45KO vs wild type
# From the text: FIGS. 11A-11B show CD45 protein expression profile after PTPRC (CD45) gene knockout by CRISPR/Cas9 gene editing.
# Cell Isolation, CD45 gene editing, CD45-CAR Lentiviral Transduction, and Ex Vivo Expansion_Leukapheresis products were obtained from consented research participants (healthy donors) under protocols approved by the City of Hope Internal Review Board (IRB). On the day of leukapheresis, peripheral blood mononuclear cells (PBMC) were isolated by density gradient centrifugation over Ficoll-Paque (GE Healthcare) followed by multiple washes in PBS/EDTA (Miltenyi Biotec). Cells were rested overnight at room temperature (RT) on a rotator, and subsequently washed and resuspended in X-VIVO T cell medium (Lonza) containing 10% FBS (complete X-VIVO). Up to 5.0×10^9 PBMC were incubated with anti-CD14 and anti-CD25 microbeads (Miltenyi Biotec) for 30 min at RT and magnetically depleted using the CliniMACS® system (Miltenyi Biotec) according to the manufacturer's protocol and these were termed depleted PBMCs (dPBMC). dPBMC were frozen in CryoStor® CS5 (StemCell Technologies) until further processing. […]
# Experiments were then conducted to quantify the CD45 protein expression on wild type and CD45 knock out T cells after PTPRC (CD45) gene knockout by CRISPR/Cas9 gene editing. hCD45gRNA #3_E12, […] […]
Compound,relative survival cell number [1] [%],"CD45 expression (flow cytometry, MFI) (PTPRC (CD45) gene)"
CC[C@H](C(=O)N1CCCC[C@H]1C(=O)O[C@H](CCc1ccc(OC)c(OC)c1)c1cccc(OCC(=O)NCCNC(=O)COc2cccc([C@@H](CCc3ccc(OC)c(OC)c3)OC(=O)[C@@H]3CCCCN3C(=O)[C@@H](CC)c3cc(OC)c(OC)c(OC)c3)c2)c1)c1cc(OC)c(OC)c(OC)c1 [ramiducid],36,
"CUUCUACAAAAAAUAAUCUG (SEQ ID NO: 39) (listed as RNA, chemistry not given here) [hCD45gRNA #3_E12, gRNA targeting PTPRC exon 12]",,decreasing expression of CD45
